Reference: article PMC12753884, “Naringenin targets FimZ to regulate type I fimbriae and reduce the virulence of Salmonella” (Frontiers in Cellular and Infection Microbiology, 2025)
pKd: −log10 of the molar value.

Tests used:
Assay type in all cases: binding
FimZ [1] = target: T1, FimZ (Salmonella enterica, UniProt P26319, T138A); assay: SPR (Biacore X100, His-antibody capture on CM5 chip)
T1 construct: Flag-FimZ-His mutant
T1 sequence (P26319 1-210 T138A): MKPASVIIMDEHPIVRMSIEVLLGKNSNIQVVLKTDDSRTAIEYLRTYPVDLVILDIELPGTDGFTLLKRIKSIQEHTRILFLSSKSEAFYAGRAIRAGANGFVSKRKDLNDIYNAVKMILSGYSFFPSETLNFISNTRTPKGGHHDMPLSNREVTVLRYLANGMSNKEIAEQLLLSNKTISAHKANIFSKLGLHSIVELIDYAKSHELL

FimZ [2] = target: T2, FimZ (Salmonella enterica, UniProt P26319, I135A); assay: as above
T2 construct: Flag-FimZ-His mutant
T2 sequence (P26319 1-210 I135A): T1 sequence (P26319 1-210 T138A)

FimZ [3] = target: T3, FimZ (Salmonella enterica, UniProt P26319); assay: SPR (Biacore X100, His-antibody capture on CM5 chip); EMSA support
T3 construct: Flag-FimZ-His, whole fimZ fragment of SL1344 in pET-28a

With `O=C1C[C@@H](c2ccc(O)cc2)Oc2cc(O)cc(O)c21` [Nar, naringenin] as the compound, how does the pKd (FimZ [1]) read?
The pKd was 3.39.

What about the pKd (FimZ [2]) of the same compound?
Its pKd is 3.82.

And the pKd (FimZ [3])?
Its pKd is 4.47.
